Key:
Japanese bulrush = assay: Test Example 2: herbicidal activity, application during weed generation under submerged conditions (Table 17, symbol B); type: in vivo, Japanese bulrush (Schoenoplectus juncoides); conditions: AAH 320 g/ha; application during weed generation, submerged conditions
Method in brief: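 Alluvial soil in Wagner pots was flooded to 4 cm depth and sown with the three weeds together; pots were kept in a greenhouse at 25° C. to 30° C. At the one to two leaf stage, an emulsion formulation diluted in water to a set rate went onto the water surface; scored three weeks later.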

chickweed = assay: Test Example 4: herbicidal effect by soil treatment (Table 19, symbol P); type: in vivo, common chickweed (Stellaria media); conditions: amount of applied herbicide 320 g/ha
Method in brief: (§1)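 Scoring uses the grading scale of an earlier test, three weeks post-application. Treatment consists of spraying a diluted emulsion formulation across the surface of sterilized diluvial soil in which seeds are buried near 1.5 cm deep; boxes are kept in a greenhouse between 25° C. and 30° C.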

wild oat [1] = assay: Test Example 4: herbicidal effect by soil treatment (Table 19, symbol I); type: in vivo, wild oat (Avena fatua); conditions: amount of applied herbicide 320 g/ha
Method in brief: as §1

lambsquarters [2] = assay: Test Example 4: herbicidal effect by soil treatment (Table 19, symbol O); type: in vivo, lambsquarters (Chenopodium album); conditions: amount of applied herbicide 320 g/ha
Method in brief: as §1

persian speedwell = assay: Test Example 5: herbicidal effect by foliage application, plastic box (Table 20, symbol R); type: in vivo, Persian speedwell (Veronica persica); conditions: foliage application, 320 g/ha, three weeks after application
Method in brief: (§2)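 Post-emergence foliar test in sterilized diluvial soil. Compound applied as water-diluted emulsion at a predetermined rate to 14-day-old plants; evaluation at three weeks.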

green foxtail [3] = assay: Test Example 5: herbicidal effect by foliage application, plastic box (Table 20, symbol G); type: in vivo, green foxtail (Setaria viridis); conditions: foliage application, 320 g/ha, three weeks after application
Method in brief: as §2

wild oat [4] = assay: Test Example 5: herbicidal effect by foliage application, plastic box (Table 20, symbol I); type: in vivo, wild oat (Avena fatua); conditions: foliage application, 320 g/ha, three weeks after application
Method in brief: as §2

green foxtail [5] = assay: Test Example 4: herbicidal effect by soil treatment (Table 19, symbol G); type: in vivo, green foxtail (Setaria viridis); conditions: amount of applied herbicide 320 g/ha
Method in brief: as §1

barnyard grass = assay: Test Example 4: herbicidal effect by soil treatment (Table 19, symbol H); type: in vivo, barnyard grass (Echinochloa crus-galli); conditions: amount of applied herbicide 320 g/ha
Method in brief: as §1

windgrass [6] = assay: Test Example 4: herbicidal effect by soil treatment (Table 19, symbol L); type: in vivo, windgrass (Apera spica-venti); conditions: amount of applied herbicide 320 g/ha
Method in brief: as §1

lambsquarters [7] = assay: Test Example 5: herbicidal effect by foliage application, plastic box (Table 20, symbol O); type: in vivo, lambsquarters (Chenopodium album); conditions: foliage application, 320 g/ha, three weeks after application
Method in brief: as §2

redroot pigweed = assay: Test Example 5: herbicidal effect by foliage application, plastic box (Table 20, symbol N); type: in vivo, redroot pigweed (Amaranthus retroflexus); conditions: foliage application, 320 g/ha, three weeks after application
Method in brief: as §2

Chinese sprangletop = assay: Test Example 3: herbicidal effect by foliage application, Wagner pot (Table 18, symbol D); type: in vivo, chinese sprangletop (Leptochloa chinensis); conditions: 320 g/ha
Method in brief: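 Plants were sown in alluvial soil held under 0.1–0.5 cm standing water and grown 14 days in a greenhouse at 25–30 °C. An emulsifiable formulation, water-diluted to the set dose, was then sprayed onto the foliage, and effects were scored three weeks later using previously defined criteria.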

windgrass [8] = assay: Test Example 5: herbicidal effect by foliage application, plastic box (Table 20, symbol L); type: in vivo, windgrass (Apera spica-venti); conditions: foliage application, 320 g/ha, three weeks after application
Method in brief: as §2

velvetleaf = assay: Test Example 5: herbicidal effect by foliage application, plastic box (Table 20, symbol M); type: in vivo, velvetleaf (Abutilon theophrasti); conditions: foliage application, 320 g/ha, three weeks after application
Method in brief: as §2

late watergrass = assay: Test Example 1: herbicidal activity, application before weed generation under submerged conditions (Table 16, symbol A); type: in vivo, late watergrass (Echinochloa oryzicola); conditions: amount of applied herbicide 320 g/ha
Method in brief: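 Submerged Wagner pots (alluvial soil, 4 cm water) sown with weed seeds and planted with 2.5-leaf rice seedlings; emulsifiable concentrate diluted in water applied to water surface on sowing day. Held in greenhouse at 25-30 °C; injury scored 0-5 by herbicidal rate after three weeks.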

Italian ryegrass = assay: Test Example 4: herbicidal effect by soil treatment (Table 19, symbol K); type: in vivo, Italian ryegrass (Lolium multiflorum); conditions: amount of applied herbicide 320 g/ha
Method in brief: as §1

## CCOc1ccc2c(-c3c(O)c(C)nn(C)c3=O)c(-c3ccc(OC)cc3)sc2c1 [3-091]
Japanese bulrush
  herbicidal effect rating, B: Japanese bulrush: 3 (Herbicidal rate of 40% or more and less than 70%)
chickweed
  P: chickweed, herbicidal effect grade: 4 (Herbicidal rate of 70% or more and less than 90%)
Wild oat [1]
  I: wild oat, herbicidal effect grade: 0 (Herbicidal rate of 5% or less (almost no effect))
Lambsquarters [2]
  O: lambsquarters, herbicidal effect grade: 5 (Herbicidal rate of 90% or more (almost completely withered))
Persian speedwell
  R: persian speedwell, herbicidal effect grade: 5 (Herbicidal rate of 90% or more (almost completely withered))
Green foxtail [3]
  G: green foxtail, herbicidal effect grade: 0 (Herbicidal rate of 5% or less (almost no effect))
Wild oat [4]
  I: wild oat, herbicidal effect grade: 0 (Herbicidal rate of 5% or less (almost no effect))
Green foxtail [5]
  G: green foxtail, herbicidal effect grade: 0 (Herbicidal rate of 5% or less (almost no effect))
Barnyard grass
  H: barnyard grass, herbicidal effect grade: 0 (Herbicidal rate of 5% or less (almost no effect))
Windgrass [6]
  L: windgrass, herbicidal effect grade: 0 (Herbicidal rate of 5% or less (almost no effect))
Lambsquarters [7]
  O: lambsquarters, herbicidal effect grade: 5 (Herbicidal rate of 90% or more (almost completely withered))
Redroot pigweed
  N: redroot pigweed, herbicidal effect grade: 4 (Herbicidal rate of 70% or more and less than 90%)
Chinese sprangletop
  herbicidal effect on Chinese sprangletop (D): 0 (Herbicidal rate of 5% or less (almost no effect))
Windgrass [8]
  L: windgrass, herbicidal effect grade: 0 (Herbicidal rate of 5% or less (almost no effect))
velvetleaf
  M: velvetleaf, herbicidal effect grade: 4 (Herbicidal rate of 70% or more and less than 90%)
Late watergrass
  Herbicidal effect, A: late watergrass: 0 (Herbicidal rate of 5% or less (almost no effect))
Italian ryegrass
  K: Italian ryegrass, herbicidal effect grade: 0 (Herbicidal rate of 5% or less (almost no effect))

## CCOc1ccc2c(-c3c(O)c(C)nn(C)c3=O)c(-c3ccc(F)cc3OCC)sc2c1 [3-095]
Japanese bulrush
  herbicidal effect rating, B: Japanese bulrush: 5 (Herbicidal rate of 90% or more (almost completely withered))
chickweed
  P: chickweed, herbicidal effect grade: 4 (Herbicidal rate of 70% or more and less than 90%)
Wild oat [1]
  I: wild oat, herbicidal effect grade: 3 (Herbicidal rate of 40% or more and less than 70%)
Lambsquarters [2]
  O: lambsquarters, herbicidal effect grade: 5 (Herbicidal rate of 90% or more (almost completely withered))
Persian speedwell
  R: persian speedwell, herbicidal effect grade: 5 (Herbicidal rate of 90% or more (almost completely withered))
Green foxtail [3]
  G: green foxtail, herbicidal effect grade: 3 (Herbicidal rate of 40% or more and less than 70%)
Wild oat [4]
  I: wild oat, herbicidal effect grade: 5 (Herbicidal rate of 90% or more (almost completely withered))
Green foxtail [5]
  G: green foxtail, herbicidal effect grade: 5 (Herbicidal rate of 90% or more (almost completely withered))
Barnyard grass
  H: barnyard grass, herbicidal effect grade: 5 (Herbicidal rate of 90% or more (almost completely withered))
Windgrass [6]
  L: windgrass, herbicidal effect grade: 4 (Herbicidal rate of 70% or more and less than 90%)
Lambsquarters [7]
  O: lambsquarters, herbicidal effect grade: 5 (Herbicidal rate of 90% or more (almost completely withered))
Redroot pigweed
  N: redroot pigweed, herbicidal effect grade: 5 (Herbicidal rate of 90% or more (almost completely withered))
Chinese sprangletop
  herbicidal effect on Chinese sprangletop (D): 5 (Herbicidal rate of 90% or more (almost completely withered))
Windgrass [8]
  L: windgrass, herbicidal effect grade: 5 (Herbicidal rate of 90% or more (almost completely withered))
velvetleaf
  M: velvetleaf, herbicidal effect grade: 5 (Herbicidal rate of 90% or more (almost completely withered))
Late watergrass
  Herbicidal effect, A: late watergrass: 5 (Herbicidal rate of 90% or more (almost completely withered))
Italian ryegrass
  K: Italian ryegrass, herbicidal effect grade: 2 (Herbicidal rate of 20% or more and less than 40%)

## COc1ccccc1-c1sc2cc(OC(C)C)ccc2c1-c1c(O)c(C)nn(C)c1=O [3-101]
Japanese bulrush
  herbicidal effect rating, B: Japanese bulrush: 3 (Herbicidal rate of 40% or more and less than 70%)
chickweed
  P: chickweed, herbicidal effect grade: 4 (Herbicidal rate of 70% or more and less than 90%)
Wild oat [1]
  I: wild oat, herbicidal effect grade: 1 (Herbicidal rate of 5% or more and less than 20%)
Lambsquarters [2]
  O: lambsquarters, herbicidal effect grade: 5 (Herbicidal rate of 90% or more (almost completely withered))
Persian speedwell
  R: persian speedwell, herbicidal effect grade: 5 (Herbicidal rate of 90% or more (almost completely withered))
Green foxtail [3]
  G: green foxtail, herbicidal effect grade: 5 (Herbicidal rate of 90% or more (almost completely withered))
Wild oat [4]
  I: wild oat, herbicidal effect grade: 4 (Herbicidal rate of 70% or more and less than 90%)
Green foxtail [5]
  G: green foxtail, herbicidal effect grade: 5 (Herbicidal rate of 90% or more (almost completely withered))
Barnyard grass
  H: barnyard grass, herbicidal effect grade: 5 (Herbicidal rate of 90% or more (almost completely withered))
Windgrass [6]
  L: windgrass, herbicidal effect grade: 4 (Herbicidal rate of 70% or more and less than 90%)
Lambsquarters [7]
  O: lambsquarters, herbicidal effect grade: 5 (Herbicidal rate of 90% or more (almost completely withered))
Redroot pigweed
  N: redroot pigweed, herbicidal effect grade: 5 (Herbicidal rate of 90% or more (almost completely withered))
Chinese sprangletop
  herbicidal effect on Chinese sprangletop (D): 3 (Herbicidal rate of 40% or more and less than 70%)
Windgrass [8]
  L: windgrass, herbicidal effect grade: 5 (Herbicidal rate of 90% or more (almost completely withered))
velvetleaf
  M: velvetleaf, herbicidal effect grade: 5 (Herbicidal rate of 90% or more (almost completely withered))
Late watergrass
  Herbicidal effect, A: late watergrass: 5 (Herbicidal rate of 90% or more (almost completely withered))
Italian ryegrass
  K: Italian ryegrass, herbicidal effect grade: 5 (Herbicidal rate of 90% or more (almost completely withered))

## CCCCOc1ccc2c(-c3c(O)c(C)nn(C)c3=O)c(-c3ccccc3OC)sc2c1 [3-105]
Japanese bulrush
  herbicidal effect rating, B: Japanese bulrush: 3 (Herbicidal rate of 40% or more and less than 70%)
chickweed
  P: chickweed, herbicidal effect grade: 3 (Herbicidal rate of 40% or more and less than 70%)
Wild oat [1]
  I: wild oat, herbicidal effect grade: 0 (Herbicidal rate of 5% or less (almost no effect))
Lambsquarters [2]
  O: lambsquarters, herbicidal effect grade: 3 (Herbicidal rate of 40% or more and less than 70%)
Persian speedwell
  R: persian speedwell, herbicidal effect grade: 5 (Herbicidal rate of 90% or more (almost completely withered))
Green foxtail [3]
  G: green foxtail, herbicidal effect grade: 5 (Herbicidal rate of 90% or more (almost completely withered))
Wild oat [4]
  I: wild oat, herbicidal effect grade: 4 (Herbicidal rate of 70% or more and less than 90%)
Green foxtail [5]
  G: green foxtail, herbicidal effect grade: 3 (Herbicidal rate of 40% or more and less than 70%)
Barnyard grass
  H: barnyard grass, herbicidal effect grade: 0 (Herbicidal rate of 5% or less (almost no effect))
Windgrass [6]
  L: windgrass, herbicidal effect grade: 4 (Herbicidal rate of 70% or more and less than 90%)
Lambsquarters [7]
  O: lambsquarters, herbicidal effect grade: 5 (Herbicidal rate of 90% or more (almost completely withered))
Redroot pigweed
  N: redroot pigweed, herbicidal effect grade: 5 (Herbicidal rate of 90% or more (almost completely withered))
Chinese sprangletop
  herbicidal effect on Chinese sprangletop (D): 5 (Herbicidal rate of 90% or more (almost completely withered))
Windgrass [8]
  L: windgrass, herbicidal effect grade: 5 (Herbicidal rate of 90% or more (almost completely withered))
velvetleaf
  M: velvetleaf, herbicidal effect grade: 5 (Herbicidal rate of 90% or more (almost completely withered))
Late watergrass
  Herbicidal effect, A: late watergrass: 5 (Herbicidal rate of 90% or more (almost completely withered))
Italian ryegrass
  K: Italian ryegrass, herbicidal effect grade: 5 (Herbicidal rate of 90% or more (almost completely withered))

## COc1ccccc1-c1sc2cc(OCC(C)C)ccc2c1-c1c(O)c(C)nn(C)c1=O [3-107]
Japanese bulrush
  herbicidal effect rating, B: Japanese bulrush: 5 (Herbicidal rate of 90% or more (almost completely withered))
chickweed
  P: chickweed, herbicidal effect grade: 1 (Herbicidal rate of 5% or more and less than 20%)
Wild oat [1]
  I: wild oat, herbicidal effect grade: 0 (Herbicidal rate of 5% or less (almost no effect))
Lambsquarters [2]
  O: lambsquarters, herbicidal effect grade: 5 (Herbicidal rate of 90% or more (almost completely withered))
Persian speedwell
  R: persian speedwell, herbicidal effect grade: 5 (Herbicidal rate of 90% or more (almost completely withered))
Green foxtail [3]
  G: green foxtail, herbicidal effect grade: 5 (Herbicidal rate of 90% or more (almost completely withered))
Wild oat [4]
  I: wild oat, herbicidal effect grade: 0 (Herbicidal rate of 5% or less (almost no effect))
Green foxtail [5]
  G: green foxtail, herbicidal effect grade: 4 (Herbicidal rate of 70% or more and less than 90%)
Barnyard grass
  H: barnyard grass, herbicidal effect grade: 3 (Herbicidal rate of 40% or more and less than 70%)
Windgrass [6]
  L: windgrass, herbicidal effect grade: 0 (Herbicidal rate of 5% or less (almost no effect))
Lambsquarters [7]
  O: lambsquarters, herbicidal effect grade: 5 (Herbicidal rate of 90% or more (almost completely withered))
Redroot pigweed
  N: redroot pigweed, herbicidal effect grade: 5 (Herbicidal rate of 90% or more (almost completely withered))
Chinese sprangletop
  herbicidal effect on Chinese sprangletop (D): 3 (Herbicidal rate of 40% or more and less than 70%)
Windgrass [8]
  L: windgrass, herbicidal effect grade: 5 (Herbicidal rate of 90% or more (almost completely withered))
velvetleaf
  M: velvetleaf, herbicidal effect grade: 5 (Herbicidal rate of 90% or more (almost completely withered))
Late watergrass
  Herbicidal effect, A: late watergrass: 4 (Herbicidal rate of 70% or more and less than 90%)
Italian ryegrass
  K: Italian ryegrass, herbicidal effect grade: 5 (Herbicidal rate of 90% or more (almost completely withered))

Reference: patent US20230085307A1, “PYRIDAZINONE COMPOUND AND HERBICIDE” (NISSAN CHEMICAL CORPORATION, priority 2019, published 2023)
